Earlier results as cited in US8309133B2, “Nanoparticulate quinazoline derivative formulations” (Alkermes Pharma Ireland Limited, priority 2005, dated 2012).
Read-outs that look alike come from different tables or passages of the source.

Tests used:
[1] = water at 37° C.
[2] = oral tablet

Structure (SMILES): C#Cc1cccc(Nc2ncnc3cc(OCCOC)c(OCCOC)cc23)c1.Cl [erlotinib HCl, N-(3-ethynylphenyl)-6,7-bis(2-methoxyethoxy)-4-quinazolinamine]
- Solubility in water [1]: very slightly soluble
- Absorption ([2]; administered with food): 100%
- Absorption ([2]; without food): 60%
